Measured values as given in ChEMBL document CHEMBL4477225, “Development of a cell viability assay to assess drug metabolite structure-toxicity relationships” (Bioorg Med Chem Lett, 2016).

What was measured:
Details in all cases: recombinant enzyme
Cytochrome P450 3A4 [1] = molecular target: T1, Cytochrome P450 3A4 (Homo sapiens, UniProt P08684); assay: (§1) Drug activation in human Hep3B cells assessed as human CYP3A4-mediated drug metabolism-induced cytotoxicity measured as decrease in cell viability at 45.8 uM pre-incubated with BSO for 18 hrs followed by incubation with compound for 3 hrs in presence of NADPH measured after 24 hrs in absence of compound, CYP3A4 and NADPH by cell titer-glo luminescence assay relative to BSO alone; format: ADME, cell-based
T1 sequence (P08684 whole entry): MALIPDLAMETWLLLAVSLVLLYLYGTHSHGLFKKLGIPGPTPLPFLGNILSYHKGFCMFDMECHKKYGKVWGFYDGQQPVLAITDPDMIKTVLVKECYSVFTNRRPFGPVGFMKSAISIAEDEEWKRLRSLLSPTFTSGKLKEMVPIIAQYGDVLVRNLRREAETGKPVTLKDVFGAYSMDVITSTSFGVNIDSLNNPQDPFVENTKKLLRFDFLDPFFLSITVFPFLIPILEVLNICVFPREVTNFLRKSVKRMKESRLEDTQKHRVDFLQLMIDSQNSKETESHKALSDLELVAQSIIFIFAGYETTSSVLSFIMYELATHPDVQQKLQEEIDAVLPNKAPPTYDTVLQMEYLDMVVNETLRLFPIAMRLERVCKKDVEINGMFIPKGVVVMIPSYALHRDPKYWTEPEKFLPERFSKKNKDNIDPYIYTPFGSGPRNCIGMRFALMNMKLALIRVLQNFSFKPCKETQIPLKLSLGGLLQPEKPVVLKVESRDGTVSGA

Cytochrome P450 2D6 [2] = molecular target: T2, Cytochrome P450 2D6 (Homo sapiens, UniProt P10635); assay: as §1, with “CYP2D6-mediated” for “CYP3A4-mediated”, “54.3” for “45.8”; format: ADME, cell-based
T2 sequence (P10635 whole entry): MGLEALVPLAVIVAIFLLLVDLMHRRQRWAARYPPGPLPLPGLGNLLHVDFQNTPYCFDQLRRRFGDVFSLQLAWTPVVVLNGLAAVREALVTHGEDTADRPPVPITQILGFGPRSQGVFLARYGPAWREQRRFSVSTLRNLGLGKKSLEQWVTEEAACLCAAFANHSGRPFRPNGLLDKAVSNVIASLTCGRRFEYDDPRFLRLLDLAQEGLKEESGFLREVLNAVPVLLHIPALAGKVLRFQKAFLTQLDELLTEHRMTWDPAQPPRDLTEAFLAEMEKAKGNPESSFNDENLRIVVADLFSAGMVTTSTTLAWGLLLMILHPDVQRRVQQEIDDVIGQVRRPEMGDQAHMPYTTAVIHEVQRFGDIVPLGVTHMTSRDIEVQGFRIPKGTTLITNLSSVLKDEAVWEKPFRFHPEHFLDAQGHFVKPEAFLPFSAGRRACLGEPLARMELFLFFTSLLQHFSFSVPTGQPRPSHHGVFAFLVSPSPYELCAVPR

Cytochrome P450 2C9 [3] = molecular target: T3, Cytochrome P450 2C9 (Homo sapiens, UniProt P11712); assay: as §1, with “CYP2C9-mediated” for “CYP3A4-mediated”, “44” for “45.8”; format: ADME, cell-based
T3 sequence (P11712 whole entry): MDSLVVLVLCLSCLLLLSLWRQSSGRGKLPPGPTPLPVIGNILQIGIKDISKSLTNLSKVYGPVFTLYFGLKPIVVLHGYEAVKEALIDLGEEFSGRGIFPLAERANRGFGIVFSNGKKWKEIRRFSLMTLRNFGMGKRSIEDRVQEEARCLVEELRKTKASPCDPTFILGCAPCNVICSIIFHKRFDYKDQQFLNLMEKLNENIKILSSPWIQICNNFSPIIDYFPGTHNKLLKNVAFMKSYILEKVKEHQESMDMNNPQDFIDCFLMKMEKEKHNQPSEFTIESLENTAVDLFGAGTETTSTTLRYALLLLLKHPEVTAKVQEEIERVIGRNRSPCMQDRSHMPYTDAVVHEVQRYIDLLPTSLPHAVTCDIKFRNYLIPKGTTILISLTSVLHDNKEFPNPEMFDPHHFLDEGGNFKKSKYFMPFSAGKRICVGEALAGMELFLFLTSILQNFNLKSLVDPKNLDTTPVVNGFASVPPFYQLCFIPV

Cytochrome P450 3A4 [4] = molecular target: T1, Cytochrome P450 3A4; assay: as §1, with “53” for “45.8”; format: ADME, cell-based
Cytochrome P450 2D6 [5] = molecular target: T2, Cytochrome P450 2D6; assay: as §1, with “CYP2D6-mediated” for “CYP3A4-mediated”, “5.8” for “45.8”; format: ADME, cell-based
Cytochrome P450 2C9 [6] = molecular target: T3, Cytochrome P450 2C9; assay: as §1, with “CYP2C9-mediated” for “CYP3A4-mediated”, “47.3” for “45.8”; format: ADME, cell-based
Cytochrome P450 3A4 [7] = molecular target: T1, Cytochrome P450 3A4; assay: as §1, with “16.3” for “45.8”; format: ADME, cell-based
Cytochrome P450 2D6 [8] = molecular target: T2, Cytochrome P450 2D6; assay: as §1, with “CYP2D6-mediated” for “CYP3A4-mediated”, “15.6” for “45.8”; format: ADME, cell-based
Cytochrome P450 2C9 [9] = molecular target: T3, Cytochrome P450 2C9; assay: as §1, with “CYP2C9-mediated” for “CYP3A4-mediated”, “17.1” for “45.8”; format: ADME, cell-based
Cytochrome P450 3A4 [10] = molecular target: T1, Cytochrome P450 3A4; assay: as §1, with “14” for “45.8”; format: ADME, cell-based
Cytochrome P450 2D6 [11] = molecular target: T2, Cytochrome P450 2D6; assay: as §1, with “CYP2D6-mediated” for “CYP3A4-mediated”, “31.6” for “45.8”; format: ADME, cell-based
Cytochrome P450 2C9 [12] = molecular target: T3, Cytochrome P450 2C9; assay: as §1, with “CYP2C9-mediated” for “CYP3A4-mediated”, “224.2” for “45.8”; format: ADME, cell-based
Cytochrome P450 3A4 [13] = molecular target: T1, Cytochrome P450 3A4; assay: as §1, with “300” for “45.8”
Cytochrome P450 2D6 [14] = molecular target: T2, Cytochrome P450 2D6; assay: as §1, with “CYP2D6-mediated” for “CYP3A4-mediated”, “300” for “45.8”
Cytochrome P450 2C9 [15] = molecular target: T3, Cytochrome P450 2C9; assay: as §1, with “CYP2C9-mediated” for “CYP3A4-mediated”, “71.3” for “45.8”; format: ADME, cell-based
Cytochrome P450 3A4 [16] = molecular target: T1, Cytochrome P450 3A4; assay: as §1, with “90.1” for “45.8”; format: ADME, cell-based
Cytochrome P450 2D6 [17] = molecular target: T2, Cytochrome P450 2D6; assay: as §1, with “CYP2D6-mediated” for “CYP3A4-mediated”, “113.7” for “45.8”; format: ADME, cell-based
Cytochrome P450 2C9 [18] = molecular target: T3, Cytochrome P450 2C9; assay: as §1, with “CYP2C9-mediated” for “CYP3A4-mediated”, “174.8” for “45.8”; format: ADME, cell-based
Cytochrome P450 3A4 [19] = molecular target: T1, Cytochrome P450 3A4; assay: as §1, with “74.4” for “45.8”; format: ADME, cell-based
Cytochrome P450 2D6 [20] = molecular target: T2, Cytochrome P450 2D6; assay: as §1, with “CYP2D6-mediated” for “CYP3A4-mediated”, “21.3” for “45.8”; format: ADME, cell-based
Cytochrome P450 2C9 [21] = molecular target: T3, Cytochrome P450 2C9; assay: as §1, with “CYP2C9-mediated” for “CYP3A4-mediated”, “51.1” for “45.8”; format: ADME, cell-based
Cytochrome P450 2C9 [22] = molecular target: T3, Cytochrome P450 2C9; assay: as §1, with “CYP2C9-mediated” for “CYP3A4-mediated”, “34” for “45.8”; format: ADME, cell-based

## CC(C)(C)NC(=O)[C@@H]1C[C@@H]2CCCC[C@@H]2CN1C[C@@H](O)[C@H](Cc1ccccc1)NC(=O)[C@H](CC(N)=O)NC(=O)c1ccc2ccccc2n1
Cytochrome P450 3A4 [1]
  fold change (FC): 0.8
Cytochrome P450 2D6 [2]
  fold change (FC): 0.7
Cytochrome P450 2C9 [3]
  fold change (FC): 0.8

## CCc1oc2ccccc2c1C(=O)c1ccc(O)cc1 [BENZARONE]
Cytochrome P450 3A4 [4]
  fold change (FC): 0.8
Cytochrome P450 2D6 [5]
  fold change (FC): 7.5
Cytochrome P450 2C9 [6]
  fold change (FC): 0.9

## CCc1oc2ccccc2c1C(=O)c1cc(I)c(O)c(I)c1 [BENZIODARONE]
Cytochrome P450 3A4 [7]
  fold change (FC): 2.2
Cytochrome P450 2D6 [8]
  fold change (FC): 2.3
Cytochrome P450 2C9 [9]
  fold change (FC): 2.1

## CC(O)(CS(=O)(=O)c1ccc(F)cc1)C(=O)Nc1ccc(C#N)c(C(F)(F)F)c1 (configuration not stated) [BICALUTAMIDE]
Cytochrome P450 3A4 [10]
  fold change (FC): 1.7
Cytochrome P450 2D6 [11]
  fold change (FC): 0.7
Cytochrome P450 2C9 [12]
  fold change (FC): 0.1

## CC(C(=O)O)c1cccc(Oc2ccccc2)c1 (configuration not stated) [FENOPROFEN]
Cytochrome P450 3A4 [13]
  FC: 1
Cytochrome P450 2D6 [14]
  FC: 1
Cytochrome P450 2C9 [15]
  fold change (FC): 4.2

## CC(C)C(=O)Nc1ccc([N+](=O)[O-])c(C(F)(F)F)c1 [FLUTAMIDE]
Cytochrome P450 3A4 [16]
  fold change (FC): 1.6
Cytochrome P450 2D6 [17]
  fold change (FC): 1.2
Cytochrome P450 2C9 [18]
  fold change (FC): 0.8

## CN(C)CCCN1c2ccccc2CCc2ccccc21 [IMIPRAMINE]
Cytochrome P450 3A4 [19]
  fold change (FC): 0.2
Cytochrome P450 2D6 [20]
  fold change (FC): 0.7
Cytochrome P450 2C9 [21]
  fold change (FC): 0.3

## CC(=O)N1CCN(c2ccc(OCC3COC(Cn4ccnc4)(c4ccc(Cl)cc4Cl)O3)cc2)CC1 (configuration not stated) [KETOCONAZOLE]
Cytochrome P450 2C9 [22]
  fold change (FC): 1.4
